Laboratory results: US20110321198A1, “POLYPEPTIDE HAVING FUNCTION FOR DELAYING ANTHESIS OR SUPPRESSING GROWTH, POLYNUCLEOTIDE ENCODING THE SAME, AND USE THEREOF” (priority 2009, published 2011)
Entries after “also recorded” stand apart in the source; their conditions may differ.

Legend:
[1] = test system: Arabidopsis thaliana wild-type (Col); assay: Germination efficiency under paclobutrazol treatment, wild-type; format: in vivo; details: FIG. 10
Source text: (§1) It is generally known that GA is involved in germination as well as hypocotyl growth as shown in Example 5. Hypocotyl growth or adult heights are associated with cell elongation. Typically, GA, auxin and brassinosteroid […] are involved in cell elongation while plant hormones such as GA and ABA are responsible for germination. As for the response to GA, its molecular mechanisms are different for different phenomena. Thus, in order to support the fact that the delayed flowering and/or dwarfism phenotype is attributed to the deficient response of sil1-1D to GA, the wild-type (Col) and sil1-1D were treated with paclobutrazol (PAC), which inhibits the biosynthesis of GA, and their germination efficiencies were compared. […] Generally, when GA biosynthesis was inhibited by PAC, germination efficiency was lowered, with a lowered response to GA.

sil1-1D mutant [2] = assay: Germination efficiency under paclobutrazol treatment, sil1-1D mutant; format: in vivo, Arabidopsis thaliana; details: FIG. 10
Source text: as §1

[3] = test system: Arabidopsis thaliana wild-type (Col); assay: Hypocotyl length response to GA, wild-type; format: in vivo; details: various concentrations of GA, white light, FIG. 9
Experimental: (§2) In most cases, these phenomena occur when the plant becomes low in GA response or GA biosynthesis level. Thus, the response of sil1-1D to GA was examined. In this regard, hypocotyl lengths of 15 plantlets were measured after they were grown in ½ Gamborg B5 media (Duchefa) containing 1% sucrose and various concentrations of GA under white light.

sil1-1D mutant [4] = assay: Hypocotyl length response to GA, sil1-1D mutant; format: in vivo, Arabidopsis thaliana; details: various concentrations of GA, white light, compared to wild-type, FIG. 9
Experimental: as §2

Compound | germination ([1]; wild-type (Col), 0.35 mg/L PAC) [%] | germination efficiency ([1]; wild-type, increasing PAC concentration) | germination (sil1-1D mutant [2]; 0.35 mg/L PAC) | germination efficiency (sil1-1D mutant [2]; increasing PAC concentration) | hypocotyl growth [3] | hypocotyl growth (sil1-1D mutant [4])
CC(C)(C)[C@@H](O)[C@@H](Cc1ccc(Cl)cc1)n1cncn1 (racemic) [PAC, paclobutrazol] | ~100 | decreased with increasing of PAC concentration | about 50% | decreased with increasing of PAC concentration | – | –
gibberellin [GA] | – | – | – | – | increased with increasing of GA concentration | short hypocotyls in response to GA; also recorded: significantly reduced
